Results taken from patent US20190072567A1, “METHOD OF DETECTING LC3B EXPRESSION IN EXOSOMES EXTRACTED FROM LIQUID BIOLOGICAL SAMPLES” (University of Cincinnati, priority 2017, published 2019).
“Also recorded” adds a separate entry of the source.

Columns and labels:
LC3B [1] = assay: Western blot of LC3B in exosomes extracted from MiaPaCa2 cells; type: cell-based, human
Description: U251, a human glioblastoma cell line, MiaPaCa2, a human pancreatic carcinoma cell line, and HEK293, a human embryonic kidney cell line. […] Cells were maintained in DMEM culture media supplemented with 10% fetal bovine serum (FBS), antimycotic, and L-glutamine. At 40% confluence, culture dishes were washed twice with PBS and media was replaced with 10% exosome depleted FBS (dFBS). DMEM media (50 ml EXO-FBS™ Exosome Depleted FBS media, System Biosciences) and incubated to settle for 24 h. After 24 h, culture dishes were washed with PBS and new dFBS DMEM media was added and treated with chloroquine diphosphate salt (Sigma Aldrich, UK) and incubated. […] Incubation varied according to plate confluency, CQ concentration, and expected number of exosomes secreted by the cell line. Media was collected and used for exosome extraction directly after incubation period concluded.
Detection of LC3B expression in isolated exosomes was completed using western blotting standard protocols. Briefly, gel electrophoresis was used to separate proteins by size and/or structure. Proteins were then transferred to a membrane (polyvinylidene fluoride or nitrocellulose are suitable for use) and blocked with blocking buffer to prevent non-specific antibody binding. Membranes were incubated with anti-LC3B antibody to target LC3B-I and LC3B-II. LI-COR detection (LI-COR Biotechnology, USA) was employed to visualize target proteins. […] CD9 was used as a loading control and was detected using rabbit monoclonal antibody (Cell Signaling Inc., USA). […]

HEK293 cells = assay: Annexin V cell survival assay by flow cytometry; type: cell-based, human
Description: HEK293 cells were plated in 10 cm culture dishes in 10% FBS DMEM media. Media was replaced with dFBS DMEM once 40% confluence was reached and cells were incubated for 24 h. Cells were treated with the following concentrations of agents: Gem 20 μM concentration (Gem^20), CQ 10 μM (CQ^10) and 20 μM (CQ^20) concentrations, and in combinations (wherein Gem was administered at 20 μM but CQ concentration varied) as follows: Gem+CQ^10 and Gem+CQ^20. Cells were treated in fresh dFBS DMEM media for 16 h. Cells and media were collected, centrifuged, and washed and stained with propedium iodide (PI) and annexin V prior to running samples. Cell cycle analysis was performed using fresh cells on a FACS Calibur (Becton Dickinson) after incubation with 25 μg/ml PI. Cell cycle phases were analyzed with the CellQuest-Pro software program (Becton Dickinson).
The effect of autophagy inhibitor CQ was examined via a cell survival assay by flow cytometry using annexin V (FIG. 8).
HEK293 cells were plated in 6 well cell culture plates and treated with control (A), Gem 20 μM (B), CQ 10 μM (C), CQ 20 μM (D), Gem 20 μM+CQ 10 μM (E), and Gem 20 μM+CQ 20 μM (F). Cells treated with CQ at both concentrations had increased expression of phosphatidyl serine compared to control from 10% up to almost 17% (C,E). Cells treated with Gem 20 μM alone had only 8.2% apoptotic cells (B).

LC3B [2] = assay: Western blot of LC3B in exosomes extracted from patient plasma; type: in vivo, human; settings: patients, Gem/Carb regimen + CQ 100 mg/day
Description: The study included 12 patients who were included within cohorts 1-3 of the approved phase I clinical trial (ClinicalTrials.gov Identifier NCT02071537). […] All subjects were consented before treatment and sample collection. All patients were heavily pretreated with anti-cancer therapeutics, with the exception of one patient who was enrolled to receive therapy with carboplatin/gemcitabine as part of the standard-of-care, in addition to the study CQ.
All 12 patients received Gem/Carb for from one to four cycles at standard doses, wherein the first three patients of cohort one received Gem 1200 mg/m2 and the remaining three patients of cohort one received 1200 mg/m^2 (Gem dose decreased in some patients due to heavy pretreatment, in order to avoid high toxicity profile). Carboplatin was received as area under the curve (AUC) 5 and dose modifications were permitted. […] The first 6 patients received 50 mg CQ daily. When well tolerated, the dose was increased by 50 mg increments to 100 mg/day (3 patients) and 150 mg/day (3 patients). All candidates began taking CQ orally 7 days prior to chemotherapy (day −7) and continued taking CQ daily throughout four cycles of Gem/Carb. […]
Detection of LC3B expression in isolated exosomes was completed using western blotting standard protocols. […] CD9 was used as a loading control and was detected using rabbit monoclonal antibody (Cell Signaling Inc., USA). […]

LC3B [3] = assay: Western blot of LC3B in U251 cells and in exosomes extracted from cell media; type: cell-based, human; settings: for LC3B-II band in cells: cells treated with chloroquine, whole cell / total cell extracts (U251); for LC3B-II band in exosomes: exosomes isolated from U251 cells treated with CQ
Text: Three cell lines were used in the studies disclosed herein. U251, a human glioblastoma cell line, MiaPaCa2, a human pancreatic carcinoma cell line, and HEK293, a human embryonic kidney cell line. A variety of cell lines were selected in order to compare results for cells having different baseline autophagic activities. Cells were maintained in DMEM culture media supplemented with 10% fetal bovine serum (FBS), antimycotic, and L-glutamine. At 40% confluence, culture dishes were washed twice with PBS and media was replaced with 10% exosome depleted FBS (dFBS). DMEM media (50 ml EXO-FBS™ Exosome Depleted FBS media, System Biosciences) and incubated to settle for 24 h. After 24 h, culture dishes were washed with PBS and new dFBS DMEM media was added and treated with chloroquine diphosphate salt (Sigma Aldrich, UK) and incubated. Incubation period was 48 h for western blot on HEK293 plates and 72 h for western blot of U251 cells. Incubation varied according to plate confluency, CQ concentration, and expected number of exosomes secreted by the cell line. Media was collected and used for exosome extraction directly after incubation period concluded. Exosome Extraction from Patient Plasma
Exosomes were extracted from freshly collected cell culture media using exosome precipitation reagent (Total Exosome Isolation from cell culture media, Invitrogen by Life Technologies) following manufacturer instructions. Briefly, exosome extraction reagent is added to cell culture media and the solution is incubated overnight at 2-8° C. Precipitated exosomes are recovered by standard centrifugation at 10,000×g for 60 min. Extracted exosomes were suspended in phosphate buffered saline (PBS) and stored at −80° C.
Detection of LC3B expression in isolated exosomes was completed using western blotting standard protocols. Briefly, gel electrophoresis was used to separate proteins by size and/or structure. Proteins were then transferred to a membrane (polyvinylidene fluoride or nitrocellulose are suitable for use) and blocked with blocking buffer to prevent non-specific antibody binding. Membranes were incubated with anti-LC3B antibody to target LC3B-I and LC3B-II. LI-COR detection (LI-COR Biotechnology, USA) was employed to visualize target proteins. LC3B protein detection was achieved by anti-LC3B rabbit monoclonal antibody (Cell Signaling Inc., USA). CD9 was used as a loading control and was detected using rabbit monoclonal antibody (Cell Signaling Inc., USA). All western blots were run on 5-15% gradient gels after estimating and unifying sample protein content by bicinchoninic acid assay (BCA).
Quantification of LC3B-I and LC3B-II by western blot was compared in U251 cells, exosomes extracted from cell media, patient peripheral blood, and HEK293 cells (FIG. 1). U251 and HEK293 cells were treated with CQ to induce exosome secretion. Both cells and exosomes extracted from cellular media were analyzed. A peripheral blood sample was obtained from a patient undergoing Gem/Carb treatment, with a −7 daily pretreatment with CQ. Exosomes were isolated from the patient's plasma sample.

| Compound | LC3B-II expression in exosomes (LC3B [1]; CQ 50 μM) | apoptotic cells (HEK293 cells; 10 μM CQ, 16 h) | distribution of cell population (HEK293 cells; 20 μM CQ compared with 10 μM CQ) | expression of phosphatidyl serine (apoptotic cells) (HEK293 cells; CQ at both concentrations (10 μM, 20 μM), control 10%) | LC3B expression in plasma extracted exosomes (LC3B [2]) | LC3B-II band in cells (LC3B [3]) | LC3B-II band in cells (LC3B [3]; listed as chloroquine) | LC3B-I bands in exosomes (LC3B [3]; exosomes from cells treated with chloroquine) | LC3B-II band in exosomes (LC3B [3]) | LC3B-II band in exosomes (LC3B [3]; listed as chloroquine) | LC3B band intensity in exosomes (LC3B [1]; Gemcitabine 20 μM alone) | early apoptotic cells (HEK293 cells; 20 μM Gem, 16 h) | live cells (HEK293 cells; 20 μM Gem, 16 h) | main cell population (HEK293 cells; Gem 20 μM) | apoptotic cells (HEK293 cells; Gem 20 μM alone, 16 h) |
| --- | --- | --- | --- | --- | --- | --- | --- | --- | --- | --- | --- | --- | --- | --- | --- |
| CCN(CC)CCCC(C)Nc1ccnc2cc(Cl)ccc12 (stereo not drawn) [CQ, chloroquine] | clear expression of LC3B-II | 17% | decreased both live and necrotic cells in favor of early apoptotic and apoptotic cells | ~17% | first detected at 6h, with peak detection on day 15 | prominent in both CQ-treated and CQ-untreated samples | increase in LC3B-II band thickness | lacks LC3B-I bands | detected | clear LC3B-II band | – | – | – | – | – |
| Nc1ccn([C@@H]2O[C@H](CO)[C@@H](O)C2(F)F)c(=O)n1 [Gem, gemcitabine] | – | – | – | – | – | – | – | – | – | – | significantly less intense bands for both forms of LC3B; also recorded: comparatively less intense band | 56.3% | 29.3% | early apoptotic phase | 8.2% |
